Here are results for two molecules from patent US12599575B2, “Antimicrobial adjuvant containing biphenyl derivative compound as active ingredient, and uses thereof” (KOREA RESEARCH INSTITUTE OF BIOSCIENCE AND BIOTECHNOLOGY, priority 2021, dated 2026).

Entries after “also recorded” stand apart in the source; their conditions may differ.

The subject of the test is Acinetobacter baumannii colistin resistance 357 (R357 strains). The class given is cell-based.

With `Cc1cc([N+](=O)[O-])cc(-c2ccc(Cl)cc2)c1O` [PA108], where the note is “PA108 5 μM alone”, the “cell growth inhibitory effect (respiration rate), PA108 alone” value is listed as “no self cell growth inhibitory effect”. Further, for the setting “compound 5 μM + PMB 16 μg/mL, 37° C., 24 hours”, the “bacterial growth inhibitory effect (relative respiration rate) in combination with PMB” value is “an activity to improve bacterial susceptibility to a polymyxin-based antibiotic; also recorded: cellular respiration was effectively inhibited”.
On to polymyxin B [PMB, reference compound], for which the “cell growth inhibitory effect (respiration rate), PMB alone” value (PMB 16 μg/mL alone) was “no cell growth inhibitory effect”.
